Four compounds from US20080207655A1, “Diaminopyrimidines as P2X3 and P2X2/3 modulators” (Roche Palo Alto LLC, priority 2007, published 2008) can be followed below.

One data set addresses T1, rat P2X3 receptor (Rattus norvegicus, UniProt P49654).
T1 construct: expressed in transfected cells; host or cells: CHO-K1
T1 sequence (P49654 1-397): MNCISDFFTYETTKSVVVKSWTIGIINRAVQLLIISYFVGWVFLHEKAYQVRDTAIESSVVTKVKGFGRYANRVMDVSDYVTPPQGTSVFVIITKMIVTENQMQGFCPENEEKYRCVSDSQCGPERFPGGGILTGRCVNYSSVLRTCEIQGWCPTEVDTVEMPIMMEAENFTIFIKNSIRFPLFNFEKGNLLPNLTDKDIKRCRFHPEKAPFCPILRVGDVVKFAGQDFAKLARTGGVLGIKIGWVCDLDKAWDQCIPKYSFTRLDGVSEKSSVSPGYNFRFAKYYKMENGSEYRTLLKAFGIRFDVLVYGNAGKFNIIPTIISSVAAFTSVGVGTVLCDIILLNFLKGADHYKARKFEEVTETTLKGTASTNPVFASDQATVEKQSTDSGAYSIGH
Nature of the data set: P2X3 FLIPR (Fluorometric Imaging Plate Reader) assay, CHO-K1 cells, α,β-meATP-evoked calcium fluorescence. The class given is cell-based. The settings on record: agonist α,β-meATP 1 μM. Here is the method: (§1) CHO-K1 cells were transfected with cloned rat P2X3 or human P2X2/3 receptor subunits and passaged in flasks. 18-24 hours before the FLIPR experiment, cells were released from their flasks, centrifuged, and resuspended in nutrient medium at 2.5×10^5 cells/ml. The cells were aliquoted into black-walled 96-well plates at a density of 50,000 cells/well and incubated overnight in 5% CO2 at 37° C. On the day of the experiment, cells were washed in FLIPR buffer (calcium- and magnesium-free Hank's balanced salt solution, 10 mM HEPES, 2 mM CaCl2, 2.5 mM probenecid; FB). Each well received 100 μl FB and 100 μl of the fluorescent dye Fluo-3 AM [2 μM final conc.]. […]
(§2) Test compounds (dissolved in DMSO at 10 mM and serially diluted with FB) or vehicle were added to each well (25 μl of a 4× solution) and allowed to equilibrate for 20 minutes at room temperature. […] Fluorescence was measured for an additional 2 minutes at 1 second intervals after agonist addition. A final addition of ionomycin (5 μM, final concentration) was made to each well of the FLIPR test plate to establish cell viability and maximum fluorescence of dye-bound cytosolic calcium. Peak fluorescence in response to the addition of α,β-meATP (in the absence and presence of test compounds) was measured and inhibition curves generated using nonlinear regression. […]

The target in the next data set is T2, human P2X2/3 receptor (Homo sapiens, UniProt P56373+Q9UBL9).
T2 construct: expressed in transfected cells; host or cells: CHO-K1
T2 sequence (Q9UBL9 1-471): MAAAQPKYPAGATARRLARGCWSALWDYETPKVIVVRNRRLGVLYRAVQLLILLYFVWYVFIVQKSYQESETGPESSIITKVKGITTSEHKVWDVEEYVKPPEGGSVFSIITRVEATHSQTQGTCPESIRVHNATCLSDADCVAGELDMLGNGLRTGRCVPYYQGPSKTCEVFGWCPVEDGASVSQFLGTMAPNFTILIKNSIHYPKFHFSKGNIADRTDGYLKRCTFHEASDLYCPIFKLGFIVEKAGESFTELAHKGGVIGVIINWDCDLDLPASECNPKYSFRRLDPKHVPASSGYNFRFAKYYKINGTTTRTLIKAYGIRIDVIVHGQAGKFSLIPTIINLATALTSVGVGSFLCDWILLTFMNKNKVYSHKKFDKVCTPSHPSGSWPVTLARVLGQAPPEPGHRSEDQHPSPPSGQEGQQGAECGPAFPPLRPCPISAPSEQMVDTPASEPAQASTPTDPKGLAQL
T2 sequence (P56373 1-397): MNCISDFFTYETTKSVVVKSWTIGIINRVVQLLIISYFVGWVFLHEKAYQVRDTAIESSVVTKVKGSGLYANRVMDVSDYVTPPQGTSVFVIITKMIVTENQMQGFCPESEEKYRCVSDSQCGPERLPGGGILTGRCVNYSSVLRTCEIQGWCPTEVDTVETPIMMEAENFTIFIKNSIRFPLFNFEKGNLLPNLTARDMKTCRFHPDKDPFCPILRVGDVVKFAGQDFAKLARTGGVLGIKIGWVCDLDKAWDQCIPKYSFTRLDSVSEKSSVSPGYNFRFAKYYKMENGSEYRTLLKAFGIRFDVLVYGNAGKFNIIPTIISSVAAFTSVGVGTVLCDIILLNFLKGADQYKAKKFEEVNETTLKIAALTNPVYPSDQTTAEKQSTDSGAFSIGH
Description: P2X2/3 FLIPR (Fluorometric Imaging Plate Reader) assay, CHO-K1 cells, α,β-meATP-evoked calcium fluorescence. It counts as cell-based. The settings on record: agonist α,β-meATP 5 μM. Here is the method: as §1, §2

Take `C#Cc1cc(Oc2cnc(NC(CO)CO)nc2N)c(C(C)C)cc1OC` [4a, 2-[4-Amino-5-(5-ethynyl-2-isopropyl-4-methoxy-phenoxy)-pyrimidin-2-ylamino]-propane-1,3-diol]: the melting point – broadly, the temperature, or range, at which the solid turns liquid – lay in the range of 135.5 to 139.1 °C. On the same count and under the same terms, the result for `COc1cc(C(C)C)c(Oc2cnc(NC(CO)CO)nc2N)cc1S(N)(=O)=O` [2a, 5-[4-Amino-2-(2-hydroxy-1-hydroxymethyl-ethylamino)-pyrimidin-5-yloxy]-4-isopropyl-2-methoxy-benzenesulfonamide] reads 180 to 180.9 °C. For the compound `C#Cc1cc(Oc2cnc(N)nc2N)c(C(C)C)cc1O` [4-(2,4-Diamino-pyrimidin-5-yloxy)-2-ethynyl-5-isopropyl-phenol], the “pIC50 for the P2X3 receptor” value on rat P2X3 receptor is “approximately 8.24”. Besides, the “pIC50 for the P2X2/3 receptor” value at human P2X2/3 receptor is on record as “approximately 7.99”. For the compound `COc1cc(C(C)C)c(Oc2cnc(N)nc2N)cc1I` [1b, 5-(5-Iodo-2-isopropyl-4-methoxy-phenoxy)-pyrimidine-2,4-diamine, reference compound], the IC50 was 9.77 nM at rat P2X3 receptor (read-out: pIC50 for the P2X3 receptor (converted)) and 41.7 nM on human P2X2/3 receptor (read-out: pIC50 for the P2X2/3 receptor (converted)).
